Marks after values point to notes of the source that are not given here.
What was measured:
IRF-1 = experiment: LPS-increased IRF-1 mRNA and IRF-1 binding to MxISRE in RAW 264.7 macrophages (Northern, EMSA); type: cell-based, mouse
Description: IRF-1 is a transcription factor which is induced upon LPS stimulation of macrophages through a Stat1 dependent mechanism (Y. Ohmori, et al., J Leukoc Biol, 69:598-604 (2001)). Therefore IRF-1 provides another example of a response that may be affected by an inhibitor of LPS induced IFN-β signaling. Unlike other molecules studied thus far, IRF-1 acts as a transcription factor to directly bind to DNA to enhance transcription of other genes such as iNOS (R. Kamijo, et al., Science, 263:1612-5, (1994)). In macrophages treated with LPS, IRF-1 is required for the transcriptional control of the iNOS gene (R. Kamijo, et al., Science, 263:1612-5 (1994)). […] Typical LPS induction for each time point is observed in each LPS plus DMSO lane (FIG. 14A, lanes 2, 5, 8). […] The decrease by C10 is much greater than by MMI (FIG. 14A, lanes 6 and 9 vs 7 and 10, respectively). […] Specificity was observed upon incubation of extracts with unlabeled […] probe (FIG. 14B, lane 9). […] ID NO:23) and [NT] (469 bp) (SEQ ID NO:24); […] ID NO:25) and [NT] […] ID NO:27) and [NT] […] ID NO:29) and [NT] (586 bp) (SEQ ID NO:30). […] EMSA in RAW 264.7 cells: Nuclear extracts were prepared using NE-PER® extraction reagents (Pierce Chemical Co.; Rockford, Ill.) in the presence of a protease inhibitor cocktail (PMSF, Leupeptin, Pepstatin-A). Oligonucleotide sense strand probe sequences were as follows […] probe: [NT] […]

horses = experiment: Horses operated to remove necrotic bowel; type: in vivo, horse; conditions: 2 mg/kg C10 pre-op and post-op for three days, plus antibiotics
Experimental: Effect of Phenylmethimazole (C10) on horses subjected to operative procedures to repair necrotic bowels: A group of animals were also subjected to an operative procedure that clamped vessels in a small portion of bowel. Within 2 days, bowel necrosis and peritonitis ensued. At that point animals were re-operated to remove the necrotic bowel and treated with 2 mg/kg C10 or DMSO alone pre-op and post-op for three days. […] Both groups had the same antibiotic therapy as used above.

ApoE−/− mice = experiment: Atherosclerosis in ApoE−/− mice fed a high fat diet; type: in vivo, mouse; set-up: key to CORONARY AND MYOCARDIAL VESSELS INFLAMMATION / AORTIC INFLAMMATION: ++++ for severe; + for very mild
Experimental: C10 reduced vascular inflammation in ApoE−/− mice fed a high fat diet: C10 was given i.p. (1 mg/kg) every other day to mice for 8 weeks. Control mice received DMSO alone. Mice were sacrificed at 8 weeks and histopathology examined in different tissues as determined by hematoxylin and eosin staining. In FIG. 15, sections from the base of the aorta in C10 treated (FIG. 15, Panel A) and untreated mice (FIG. 15, Panel B) are presented as well as sections of the coronary artery vasculature in C10 treated (FIG. 15, Panel C) and untreated mice (FIG. 15, Panel D). Vessels in the myocardium were also compared in C10 treated and untreated mice. […] Similarly in Panel D, the picture is representative of long sections of the coronary arteries that were nearly fully occluded with plaque in untreated mice whereas in C10 treated mice (Panel C), coronary arteries were largely unobstructed. Further, even where lesions were evident the lumens of vessels remained patent. Vessels within the myocardium were obstructed by plaque in the absence of C10 but patent and nearly free of plaque in the mice treated with C10. Data are representative of multiple slides taken from multiple animals.
Sections of the coronary arteries and myocardium as well as the base of the aorta were compared in untreated mice vs. C10 treated mice both for extent of lesion, quality of lesion, overexpressed TLR4, overexpressed VCAM-1, and extent of inflammation and plaque. Lesions and observations were qualitatively evaluated using ++++ for severe to + for very mild. […] Evaluation was double blinded.
Experimental animals: Twenty female Apo E−/− mice (Jackson Laboratory), 5 weeks old and weighing 14.5 g (average weight), were divided in 4 groups: (1) animals treated with 10% DMSO; (2) animals treated orally with C-10 in DMSO (1 mg/kg body weight); (3) animals treated I/P with C-10 in DMSO (same dose); and (4) control animals without treatment.
The treatment was done every other day (8 week expt) or every day. The animals were fed on a Western-type diet (TD 88137 from Harlan, Teklan). […]

MHC gene expression = conditions: cited from earlier work
[1] = C10 1 mg/kg every other day for 8 weeks

Cn1c(-c2ccccc2)cnc1S [Compound C10, 5-Phenylmethimazole]
LPS induced IRF-1 binding to the MxISRE element (EMSA) (IRF-1; RAW 264.7, LPS 1 μg/mL 2 hours): dose dependent reduction
LPS-increased IRF-1 mRNA (IRF-1; RAW 264.7, LPS 1 μg/mL, 2 and 3 hours, Northern): strong reduction
recovery after operation to remove necrotic bowel (horses): full recovery in all cases
AORTIC INFLAMMATION (ApoE−/− mice; [1]): +*
CORONARY AND MYOCARDIAL VESSELS INFLAMMATION (ApoE−/− mice; [1]): +*
weight gain (ApoE−/− mice; C10 orally and ip, 4 weeks): decreased
potency in suppressing MHC gene expression relative to MMI (MHC gene expression): 50-100 fold

From patent US9326972B2, “Use of phenylmethimazoles, methimazole derivatives, and tautomeric cyclic thiones for the treatment of autoimmune/inflammatory diseases associated with toll-like receptor overexpression” (Ohio University, priority 2004, dated 2016)
